In US20250332147A1, “Methods of Treating Multiple Sclerosis” (Vanda Pharmaceuticals Inc., priority 2021, published 2025):

Assays:
[1] = test system: patients with relapsing multiple sclerosis (RMS); assay: OPTIMUM phase 3 study (NCT02425644): systemic corticosteroid (SCS) use for treatment of relapse, ponesimod 20 mg vs teriflunomide 14 mg; type: in vivo, human; conditions: for proportion of patients who received ≥1 SCS therapy for treatment of relapse / least squares mean of accumulated steroid dose (prednisone equivalent doses) for treatment of relapse: full analysis set; for proportion of patients who received ≥1 SCS therapy for treatment of relapse: between study treatment start and EOS, PON 20 mg vs TER 14 mg, P<0.0001
Experimental: Subjects were evaluated according to the treatment they were randomized to. • Primary efficacy variable/primary timepoint: The primary endpoint was annualized relapse rate (ARR) up to the end of study (EOS) defined as the number of confirmed relapses per subject-year. All available data up to EOS, regardless of treatment discontinuation was included (ITT approach). Co-Administration of Ponesimod with Corticosteroids
OPTIMUM was a phase 3, double-blind, randomized clinical trial that evaluated the efficacy, safety, and tolerability of PON (20 mg) versus TER (14 mg) in patients with RMS.
Patients with RMS aged 18 to 55 years with a relapsing course (i.e., RMS or secondary progressive MS with superimposed relapses), an Expanded Disability Status Scale (EDSS) score of 0-5.5, and recent clinical or magnetic resonance imaging activity were enrolled.
Patients were excluded from the primary analysis if they received treatment with SCS, unless it was for a multiple sclerosis (MS) relapse or short-term treatment of pulmonary conditions.
In this analysis, the proportions of patients in each treatment group who received concomitant treatment with ≥1 SCS to treat MS relapse between the start of study treatment and end of study (EOS) were compared. In addition, the mean accumulated steroid dose (prednisone equivalent doses in mg) administered to treat relapse between start of study treatment and EOS and between end of treatment (EOT) plus follow-up time was assessed.
Data are shown for analyses of the full analysis set and analyses stratified by baseline EDSS score (baseline EDSS score≤3.5 versus >3.5), prior MS treatment (disease modifying treatment [DMT] within the past 2 years versus no DMT within the past 2 years), or sex (male versus female).
The proportion of patients who received ≥1 SCS therapy for treatment of relapse is provided by treatment group; group differences were examined using Cochran-Mantel Haenszel (CMH) test and stratified by baseline EDSS and prior treatment with DMT.
The between-group difference for the mean accumulated steroid dose for treatment of relapse was evaluated using analysis of covariance models with accumulated steroid dose as the dependent variable, treatment as factor, and EDSS baseline group, and prior treatment with disease-modifying therapy within 2 years prior to randomization as covariates. EDSS baseline group was removed from the model for analyses stratified by baseline EDSS score.

[2] = test system: peripheral blood lymphocyte count; conditions: cited from earlier work
[3] = in vivo; cited from earlier work
[4] = from start of study treatment to EOS, P=0.0005
[5] = from start of study treatment to EOT+7 days of follow up, P=0.0007

SMILES	reduction of annualized relapse rate (ARR) ([1]; PON 20 mg vs teriflunomide (TER) 14 mg, patients with RMS)	proportion of patients who received ≥1 SCS therapy for treatment of relapse [1] [%]	least squares mean of accumulated steroid dose (prednisone equivalent doses) for treatment of relapse [1, 4] [mg]	least squares mean of accumulated steroid dose (prednisone equivalent doses) for treatment of relapse [1, 5] [mg]	proportion of patients who received ≥1 SCS therapy, stratified by baseline disability ([1]; only among patients with baseline EDSS≤3.5, compared with teriflunomide group)	peripheral blood lymphocyte count ([2]; blocking the egress of lymphocytes from lymphoid organs)	monocyte, natural killer (NK) cell and neutrophil counts ([2]; in vivo)	elimination from plasma [3]
CCC/N=C1\S/C(=C\c2ccc(OC[C@H](O)CO)c(Cl)c2)C(=O)N1c1ccccc1C [PON, (R)-5-[3-chloro-4-(2,3-dihydroxy-propoxy)-benz[Z]ylidene]-2-([Z]-propylimino)-3-o-tolyl-thiazolidin-4-one]	superior efficacy	29.1	3207.1	2977.1	significantly smaller proportion	rapid, dose-dependent, and reversible reduction	not reduced	–
C/C(O)=C(\C#N)C(=O)Nc1ccc(C(F)(F)F)cc1 [TER]	–	40.10	4257.2	3957.4	–	–	–	eliminated slowly
